Experimental data reported in patent publication US20250002464A1, “NOVEL COMPOUND AND PHARMACEUTICAL COMPOSITION COMPRISING SAME” (SAPIENSBIO INC., priority 2021, published 2025).

These molecules were tested on α-SMA (assay: α-SMA expression inhibitory ability in MRC5 cell line (Western blotting)). Conditions: TGF-β1 (10 ng/mL), 72 hours, relative to TGF-β1 only.
Assay type: cell-based
Method: Subsequently, the inhibitory effect on pulmonary fibrosis of the compounds according to the present invention was overall evaluated. An MRC5 cell line was treated with each compound at 10 μM, and 2 hours later, treated with TGF-β1 (10 ng/mL). After 72 hours, the cells were lysed using RIPA Buffer, and then an α-SMA protein level was measured through Western blotting. The α-SMA expression level when treating the cells with each compound and TGF-β1 compared to the α-SMA expression level when treating the cells only with TGF-β1 without the compound was calculated as the α-SMA expression inhibitory ability of the corresponding compound. The α-SMA expression inhibitory ability of each compound is summarized in Table 2 below (A: inhibitory ability≥70%, B: 50%: inhibitory ability<70%, C: inhibitory ability<50%).
`CC(C(=O)N1CCN(c2ccc(F)cc2)c2cc(F)ccc21)N1CCCC1` (stereo not drawn) [Compound 51, 1-(6-fluoro-4-(4-fluorophenyl)-3,4-dihydroquinoxaline-1(2H)-yl)-2-(pyrrolidin-1-yl)propan-1-one] showed an inhibition at 10 µM of no less than 70%.
In the case of `CC(C(=O)N1CCN(c2ccc(F)cc2)c2cc(F)ccc21)N1CCN(C)CC1` (stereo not drawn) [Compound 52, 1-(6-fluoro-4-(4-fluorophenyl)-3,4-dihydroquinoxaline-1(2H)-yl)-2-(4-methylpiperazin-1-yl)propan-1-one], the inhibition at 10 µM is reported as less than 50%.
For `CC(C(=O)N1CCN(c2ccc(F)cc2)c2cc(F)ccc21)N1CCCCC1` (stereo not drawn) [Compound 53, 1-(6-fluoro-4-(4-fluorophenyl)-3,4-dihydroquinoxaline-1(2H)-yl)-2-(piperidin-1-yl)propan-1-one], the inhibition at 10 µM was less than 50%.
`CC(C(=O)N1CCN(c2ccc(F)cc2)c2cc(F)ccc21)N1CCC[C@H]1C` (stereo partly drawn) [Compound 54, 1-(6-fluoro-4-(4-fluorophenyl)-3,4-dihydroquinoxaline-1(2H)-yl)-2-((R)-2-methylpyrrolidin-1-yl)propan-1-one] was tested, and the inhibition at 10 µM was less than 50%.
`C[C@@H]1CCCN1CCC(=O)N1CCN(c2ccccc2)c2ccccc21` [Compound 57, (R)-3-(2-methylpyrrolidin-1-yl)-1-(4-phenyl-3,4-dihydroquinoxaline-1(2H)-yl)propan-1-one] showed an inhibition at 10 µM of less than 50%.
With `O=C(CCN1CCCC(O)C1)N1CCN(c2ccccc2)c2ccccc21` (stereo not drawn) [Compound 58, 3-(3-hydroxypiperidin-1-yl)-1-(4-phenyl-3,4-dihydroquinoxaline-1(2H)-yl)propan-1-one] the inhibition at 10 µM was 50 to 70%.
Molecule `CC(C(=O)N1CCN(c2ccccc2)c2ccccc21)N1CCCC1` (stereo not drawn) [Compound 61, 1-(4-phenyl-3,4-dihydroquinoxaline-1(2H)-yl)-2-(pyrrolidin-1-yl)propan-1-one] has an inhibition at 10 µM of less than 50%.
Molecule `CC(C(=O)N1CCN(c2ccccc2)c2ccccc21)N1CCN(C)CC1` (stereo not drawn) [Compound 62, 2-(4-methylpiperazin-1-yl)-1-(4-phenyl-3,4-dihydroquinoxaline-1(2H)-yl)propan-1-one] has an inhibition at 10 µM of less than 50%.
Molecule `CC(C(=O)N1CCN(c2ccccc2)c2ccccc21)N1CCN2CCCC2C1` (stereo not drawn) [Compound 64, 2-(hexahydropyrrolo[1,2-a]pyrazin-2(1H)-yl)-1-(4-phenyl-3,4-dihydroquinoxaline-1(2H)-yl)propan-1-one] has an inhibition at 10 µM of less than 50%.
`CC(NC1CCN(C)C1)C(=O)N1CCN(c2ccccc2)c2ccccc21` (stereo not drawn) [Compound 65, 2-((1-methylpyrrolidin-3-yl)amino)-1-(4-phenyl-3,4-dihydroquinoxaline-1(2H)-yl)propan-1-one] gave an inhibition at 10 µM of less than 50%.
`C[C@@H]1CCCCN1C(=O)CN1CCN(c2ccccc2)c2ccccc21` [Compound 70, (R)-1-(2-methylpiperidin-1-yl)-2-(4-phenyl-3,4-dihydroquinoxaline-1(2H)-yl)ethan-1-one] showed an inhibition at 10 µM of 50 to 70%.
For `C[C@H]1CCCCN1C(=O)CN1CCN(c2ccccc2)c2ccccc21` [Compound 71, (S)-1-(2-methylpiperidin-1-yl)-2-(4-phenyl-3,4-dihydroquinoxaline-1(2H)-yl)ethan-1-one], the inhibition at 10 µM was less than 50%.
`CN1CCN(C(=O)CN2CCN(c3ccccc3)c3ccccc32)CC1` [Compound 73, 1-(4-methylpiperazin-1-yl)-2-(4-phenyl-3,4-dihydroquinoxaline-1(2H)-yl)ethan-1-one] showed an inhibition at 10 µM of 50 to 70%.
In the case of `O=C(CN1CCN(c2ccccc2)c2ccccc21)N1CCN2CCCC2C1` (stereo not drawn) [Compound 75], the inhibition at 10 µM is reported as 50 to 70%.
`O=C(CN1CCN(c2ccccc2)c2ccccc21)N1CCN(C2CC2)CC1` [Compound 76, 1-(4-cyclopropylpiperazin-1-yl)-2-(4-phenyl-3,4-dihydroquinoxaline-1(2H)-yl)ethan-1-one] was tested, and the inhibition at 10 µM was less than 50%.
For `O=C(CN1CCN(c2ccccc2)c2ccccc21)N1CCCC(O)C1` (stereo not drawn) [Compound 77, 1-(3-hydroxypiperidin-1-yl)-2-(4-phenyl-3,4-dihydroquinoxaline-1(2H)-yl)ethan-1-one], the inhibition at 10 µM was less than 50%.
`O=C(CCN1CCCC1)N1CCN(Cc2ccccc2)c2ccccc21` [Compound 78, 1-(4-benzyl-3,4-dihydroquinoxaline-1(2H)-yl)-3-(pyrrolidin-1-yl)propan-1-one] showed an inhibition at 10 µM of 50 to 70%.
Work on `O=C(CCN1CCCCC1)N1CCN(Cc2ccccc2)c2ccccc21` [Compound 79, 1-(4-benzyl-3,4-dihydroquinoxaline-1(2H)-yl)-3-(piperidin-1-yl)propan-1-one] yielded an inhibition at 10 µM of less than 50%.
`CN1CCN(CCC(=O)N2CCN(Cc3ccccc3)c3ccccc32)CC1` [Compound 80, 1-(4-benzyl-3,4-dihydroquinoxaline-1(2H)-yl)-3-(4-methylpiperazin-1-yl)propan-1-one] was tested, and the inhibition at 10 µM was 50 to 70%.
Work on `CC(C(=O)N1CCN(Cc2ccccc2)c2ccccc21)N1CCCCC1` (stereo not drawn) [Compound 82, 1-(4-benzyl-3,4-dihydroquinoxaline-1(2H)-yl)-2-(piperidin-1-yl)propan-1-one] yielded an inhibition at 10 µM of less than 50%.
With `CC(C(=O)N1CCN(Cc2ccccc2)c2ccccc21)N1CCN(C)CC1` (stereo not drawn) [Compound 83, 1-(4-benzyl-3,4-dihydroquinoxaline-1(2H)-yl)-2-(4-methylpiperazin-1-yl)propan-1-one] the inhibition at 10 µM was 50 to 70%.
Molecule `O=C(CN1CCCCC1)N1CCN(Cc2ccccc2)c2ccccc21` [Compound 85, 1-(4-benzyl-3,4-dihydroquinoxaline-1(2H)-yl)-2-(piperidin-1-yl)ethan-1-one] has an inhibition at 10 µM of less than 50%.
`O=C(CCN1CCCCC1)N1CCN(Cc2ccccc2Cl)c2ccccc21` [Compound 88, 1-(4-(2-chlorobenzyl)-3,4-dihydroquinoxaline-1(2H)-yl)-3-(piperidin-1-yl)propan-1-one] was tested, and the inhibition at 10 µM was less than 50%.
`CN1CCN(CCC(=O)N2CCN(Cc3ccccc3Cl)c3ccccc32)CC1` [Compound 89, 1-(4-(2-chlorobenzyl)-3,4-dihydroquinoxaline-1(2H)-yl)-3-(4-methylpiperazin-1-yl)propan-1-one] showed an inhibition at 10 µM of 50 to 70%.
`O=C(CN1CCCCC1)N1CCN(Cc2ccccc2Cl)c2ccccc21` [Compound 94, 1-(4-(2-chlorobenzyl)-3,4-dihydroquinoxaline-1(2H)-yl)-2-(piperidin-1-yl)ethan-1-one] gave an inhibition at 10 µM of 50 to 70%.
`CN1CCN(CC(=O)N2CCN(Cc3ccccc3Cl)c3ccccc32)CC1` [Compound 95, 1-(4-(2-chlorobenzyl)-3,4-dihydroquinoxaline-1(2H)-yl)-2-(4-methylpiperazin-1-yl)ethan-1-one] was tested, and the inhibition at 10 µM was 50 to 70%.
`CN1CCN(CCC(=O)N2CCN(Cc3cccc(Cl)c3)c3ccccc32)CC1` [Compound 98, 1-(4-(3-chlorobenzyl)-3,4-dihydroquinoxaline-1(2H)-yl)-3-(4-methylpiperazin-1-yl)propan-1-one] gave an inhibition at 10 µM of less than 50%.
`CC(C(=O)N1CCN(Cc2cccc(Cl)c2)c2ccccc21)N1CCCCC1` (stereo not drawn) [Compound 100, 1-(4-(3-chlorobenzyl)-3,4-dihydroquinoxaline-1(2H)-yl)-2-(piperidin-1-yl)propan-1-one] was tested, and the inhibition at 10 µM was no less than 70%.
With `CC(C(=O)N1CCN(Cc2cccc(Cl)c2)c2ccccc21)N1CCN(C)CC1` (stereo not drawn) [Compound 101, 1-(4-(3-chlorobenzyl)-3,4-dihydroquinoxaline-1(2H)-yl)-2-(4-methylpiperazin-1-yl)propan-1-one] the inhibition at 10 µM was 50 to 70%.
In the case of `O=C(CN1CCCC1)N1CCN(Cc2cccc(Cl)c2)c2ccccc21` [Compound 102, 1-(4-(3-chlorobenzyl)-3,4-dihydroquinoxaline-1(2H)-yl)-2-(pyrrolidin-1-yl)ethan-1-one], the inhibition at 10 µM is reported as less than 50%.
`O=C(CN1CCCCC1)N1CCN(Cc2cccc(Cl)c2)c2ccccc21` [Compound 103, 1-(4-(3-chlorobenzyl)-3,4-dihydroquinoxaline-1(2H)-yl)-2-(piperidin-1-yl)ethan-1-one] showed an inhibition at 10 µM of 50 to 70%.
Molecule `CN1CCN(CC(=O)N2CCN(Cc3cccc(Cl)c3)c3ccccc32)CC1` [Compound 104, 1-(4-(3-chlorobenzyl)-3,4-dihydroquinoxaline-1(2H)-yl)-2-(4-methylpiperazin-1-yl)ethan-1-one] has an inhibition at 10 µM of no less than 70%.
`CC(C(=O)N1CCN(Cc2ccc(Cl)cc2)c2ccccc21)N1CCN(C)CC1` (stereo not drawn) [Compound 110, 1-(4-(4-chlorobenzyl)-3,4-dihydroquinoxaline-1(2H)-yl)-2-(4-methylpiperazin-1-yl)propan-1-one] showed an inhibition at 10 µM of 50 to 70%.
`O=C(CCN1CCCC1)N1CCN(Cc2ccccn2)c2ccccc21` [Compound 114, 1-(4-(pyridin-2-ylmethyl)-3,4-dihydroquinoxaline-1(2H)-yl)-3-(pyrrolidin-1-yl)propan-1-one di-oxalate] showed an inhibition at 10 µM of 50 to 70%.
`O=C(CCN1CCCCC1)N1CCN(Cc2ccccn2)c2ccccc21` [Compound 115, 3-(piperidin-1-yl)-1-(4-(pyridin-2-ylmethyl)-3,4-dihydroquinoxaline-1(2H)-yl)propan-1-one] showed an inhibition at 10 µM of less than 50%.
`O=C(CN1CCCC1)N1CCN(Cc2ccccn2)c2ccccc21` [Compound 117, 1-(4-(pyridin-2-ylmethyl)-3,4-dihydroquinoxaline-1(2H)-yl)-2-(pyrrolidin-1-yl)ethan-1-one] showed an inhibition at 10 µM of less than 50%.
With `CN1CCN(CC(=O)N2CCN(Cc3ccccn3)c3ccccc32)CC1` [Compound 118, 2-(4-methylpiperazin-1-yl)-1-(4-(pyridin-2-ylmethyl)-3,4-dihydroquinoxaline-1(2H)-yl)ethan-1-one] the inhibition at 10 µM was less than 50%.
Work on `CN1CCN(CCC(=O)N2CCN(Cc3cccnc3)c3ccccc32)CC1` [Compound 121, 3-(4-methylpiperazin-1-yl)-1-(4-(pyridin-3-ylmethyl)-3,4-dihydroquinoxaline-1(2H)-yl)propan-1-one] yielded an inhibition at 10 µM of less than 50%.
`O=C(CCN1CCCC1)N1CCN(Cc2ccncc2)c2ccccc21` [Compound 122, 1-(4-(pyridin-4-ylmethyl)-3,4-dihydroquinoxaline-1(2H)-yl)-3-(pyrrolidin-1-yl)propan-1-one] showed an inhibition at 10 µM of 50 to 70%.
